Source: BindingDB's records for PubMed 7908055 (Case Western Reserve University, 1994)

Tests used:
[1] = biological target: T1, 5-hydroxytryptamine receptor 2C (Rattus norvegicus, UniProt P08909)
T1 sequence (P08909 whole entry): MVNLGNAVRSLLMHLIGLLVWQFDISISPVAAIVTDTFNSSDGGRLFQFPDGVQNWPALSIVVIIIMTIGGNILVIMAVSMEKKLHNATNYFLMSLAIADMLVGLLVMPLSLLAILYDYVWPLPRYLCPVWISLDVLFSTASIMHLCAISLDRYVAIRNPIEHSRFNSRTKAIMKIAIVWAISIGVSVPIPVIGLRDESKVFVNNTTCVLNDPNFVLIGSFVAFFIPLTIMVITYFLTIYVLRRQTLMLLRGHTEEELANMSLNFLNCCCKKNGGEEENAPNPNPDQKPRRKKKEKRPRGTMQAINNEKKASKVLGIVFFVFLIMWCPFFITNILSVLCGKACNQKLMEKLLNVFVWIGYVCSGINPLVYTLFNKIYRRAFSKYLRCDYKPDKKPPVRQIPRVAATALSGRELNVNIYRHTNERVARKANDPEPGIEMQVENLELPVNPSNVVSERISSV

D(2) dopamine receptor = D(2) dopamine receptor (Rattus norvegicus, UniProt P61169)
Sequence of D(2) dopamine receptor (P61169 whole entry): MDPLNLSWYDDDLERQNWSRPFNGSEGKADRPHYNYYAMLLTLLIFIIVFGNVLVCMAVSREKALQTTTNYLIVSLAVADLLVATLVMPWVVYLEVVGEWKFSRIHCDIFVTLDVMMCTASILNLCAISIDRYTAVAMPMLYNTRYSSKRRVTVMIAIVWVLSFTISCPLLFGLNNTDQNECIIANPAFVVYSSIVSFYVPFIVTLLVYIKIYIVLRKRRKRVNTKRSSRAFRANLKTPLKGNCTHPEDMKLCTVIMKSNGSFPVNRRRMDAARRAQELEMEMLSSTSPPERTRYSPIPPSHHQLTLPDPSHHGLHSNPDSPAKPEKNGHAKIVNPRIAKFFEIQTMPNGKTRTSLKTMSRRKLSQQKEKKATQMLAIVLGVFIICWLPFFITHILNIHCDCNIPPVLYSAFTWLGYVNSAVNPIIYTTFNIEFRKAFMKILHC

[2] = biological target: 5-hydroxytryptamine receptor 2A (Rattus norvegicus, UniProt P14842)
Sequence of 5-hydroxytryptamine receptor 2A (P14842 whole entry): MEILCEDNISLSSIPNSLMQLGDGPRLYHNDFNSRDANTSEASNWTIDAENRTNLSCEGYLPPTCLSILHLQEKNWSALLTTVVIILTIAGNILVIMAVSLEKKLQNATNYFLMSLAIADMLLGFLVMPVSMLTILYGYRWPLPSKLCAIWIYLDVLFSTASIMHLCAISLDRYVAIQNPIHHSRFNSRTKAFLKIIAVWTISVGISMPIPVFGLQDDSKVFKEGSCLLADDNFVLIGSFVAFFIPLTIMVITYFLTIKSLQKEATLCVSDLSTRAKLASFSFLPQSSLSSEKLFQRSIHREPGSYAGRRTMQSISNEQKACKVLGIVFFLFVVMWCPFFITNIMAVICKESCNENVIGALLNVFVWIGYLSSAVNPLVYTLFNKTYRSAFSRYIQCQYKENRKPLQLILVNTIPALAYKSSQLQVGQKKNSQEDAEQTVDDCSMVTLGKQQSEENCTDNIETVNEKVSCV

| Compound | Ki [1] | Ki (D(2) dopamine receptor) | Ki [2] |
| --- | --- | --- | --- |
| CC1CCN(CCCC(=O)c2ccc(F)cc2)CC1 [CAS_3575-80-2] | 1260 nM | 200 nM |  |
| CN1CCN(C2=Cc3cc(Cl)ccc3C(=CC#N)c3ccccc32)CC1 [CAS_79781-95-6] | 25.1 nM | 39.8 nM | 0.63 nM |
| CN1CCCCC1CCN1c2ccccc2Sc2ccc([S+](C)[O-])cc21 (stereo unspecified) |  | 7.94 nM |  |
| CC(=O)c1ccc2c(c1)N(CCCN1CCN(CCO)CC1)c1ccccc1S2 [CAS_5714-00-1] | 1000 nM |  |  |
| OCCN1CCN(CCCN2c3ccccc3Sc3ccc(Cl)cc32)CC1 [4-[3-(2-chlorophenothiazin-10-yl)propyl]-1-piperazineethanol] | 50.1 nM | 0.63 nM | 2.51 nM |
| CN1CCN(C2=Nc3ccccc3Sc3ccc(Cl)cc32)CC1 [2-chloro-11-(4-methylpiperazin-1-yl)dibenzo[b,f][1,4]thiazepine] |  |  | 0.79 nM |
| O=C1CC2(CCCC2)CC(=O)N1CCCCN1CCN(c2nsc3ccccc23)CC1 [TIOSPERONE] | 10 nM | 0.5 nM |  |
| CCc1c(C)[nH]c2c1C(=O)C(CN1CCOCC1)CC2 (stereo unspecified) [Moban] |  | 15.8 nM | 501 nM |
| CN1CCN(C2=Nc3ccccc3Oc3ccc(Cl)cc32)CC1 [13-chloro-10-(4-methylpiperazin-1-yl)-2-oxa-9-azatricyclo[9.4.0.0^{3,8}]pentadeca-1(11),3,5,7,9,12,14-heptaene] |  | 7.94 nM |  |
| CN1CCN(C2=Nc3cc(F)ccc3Cc3ccccc32)CC1 | 19.9 nM | 316 nM | 6.3 nM |
| O=c1[nH]c2ccccc2n1C1CCN(CCCC(c2ccc(F)cc2)c2ccc(F)cc2)CC1 [1-(1-(4,4-bis(4-fluorophenyl)butyl)piperidin-4-yl)-1H-benzo[d]imidazol-2(3H)-one] | > 10000 nM |  |  |
| CCNC(=O)N1CCN(CCCC(c2ccc(F)cc2)c2ccc(F)cc2)CC1 | 1260 nM | 501 nM | 12.6 nM |
| CN1CCN(CC/C=C2/c3ccccc3Sc3ccc(S(=O)(=O)N(C)C)cc32)CC1 [MLS000028463] | 1580 nM | 0.63 nM |  |
| CN1CCN(C2=Nc3ccccc3Cc3ccccc32)CC1 |  | 501 nM | 12.6 nM |
| CN1CCN(CCCN2c3ccccc3Sc3ccc(Cl)cc32)CC1 [2-chloro-10-[3-(4-methylpiperazin-1-yl)propyl]phenothiazine;ethane-1,2-disulfonic acid] | 79.4 nM |  | 6.3 nM |
| CN(C)CC/C=C1\c2ccccc2Sc2ccc(Cl)cc21 |  |  | 0.39 nM |
| CCN1CCC[C@H]1CNC(=O)c1c(O)c(Cl)cc(Cl)c1OC [3,5-Dichloro-N-(1-ethyl-pyrrolidin-2-ylmethyl)-2-hydroxy-6-methoxy-benzamide (raclopride)] | 5010 nM |  | 5010 nM |
| CC1CN(CCCn2c3ccccc3c3ccccc32)CC(C)N1 (stereo unspecified) [9-[3-(3,5-dimethylpiperazin-1-yl)propyl]-9H-carbazole] |  |  | 5010 nM |
| OC1(c2ccc(Cl)c(C(F)(F)F)c2)CCN(CCCC(c2ccc(F)cc2)c2ccc(F)cc2)CC1 [Penfluridol] |  |  | 63.1 nM |
| CN1CCN(C2=Nc3cscc3C(=CC#N)c3cscc32)CC1 [NSC_3086153] | 63.1 nM | 1580 nM |  |
